Patent publication US20260284202A1, “CONJUGATES OF SAPONIN AND ANTISENSE OLIGONUCLEOTIDES FOR USE IN THE TREATMENT OF NEURODEGENERATIVE DISEASES” (priority 2023, published 2026)

Columns and labels:
Type in all cases: cell-based, murine
Malat1 mRNA = Malat1 mRNA knockdown in Neuro-2a cells (qRT-PCR); settings: for enhancing effect on Malat1 mRNA reduction in co-administration: named molecule titrated with fixed 200 nM Malat1 ASO; for Malat1 RNA still measurable: 20.000 nM Malat1 ASO alone or co-administered with 1 μM of the named molecule; for co-administration enhancement effect on Malat1 ASO efficacy: named molecule at 1 μM with titrated Malat1 ASO
Procedure: Neuro-2a (murine neuroblastoma cells) were cultured in DMEM (PAN-Biotech GmbH) supplemented with 10% fetal bovine serum (FBS, PAN-Biotech GmbH) and Pen/Strep (PAN-Biotech GmbH). For experiments, Neuro-2a cells were harvested, resuspended at 60.000 cells/mL and seeded at a density of 36.000 cells/well or 6.000 cells/well for the 24- or 96-well plates (Greiner BioOne). Cells were incubated overnight at 37° C. Before the start of treatment, 210 µL or 35 μL medium was added per well, respectively, followed by the conjugates from a 10× concentrated stock solution in DPBS (PAN-Biotech GmbH). Plates were incubated for 72 hr at 37° C. before the cells of the 24-well plates were harvested for gene expression analysis and the cell viability was assessed on the 96-well plates.
(§1) Total RNA from cells was isolated using TRIzol™ Reagent (Thermo Scientific) according to the manufacturer's instruction. Conversion into cDNA was performed using iScript™ cDNA Synthesis Kit (BioRad) using standard protocols. Gene expression levels of the gene of interest (GOI) and levels of specific housekeeping genes were determined using quantitative real-time PCR assays (qRT-PCR) using iTaq™ Universal SYBR® Green Supermix (BioRad) and the Light Cycler 480 II (Roche Diagnostics) with specific DNA primers, listed in Table A3. Each analysis reaction was performed in triplicate. Analysis was done by the ΔCt method to determine GOI expression relative to 2 specific housekeeping control mRNAs. Results are expressed as % relative GOI expression levels after normalization to DPBS treated control cells.
(§2) Neuro-2a cells (murine neuroblastoma cell line) were cultured in DMEM (PAN-Biotech GmbH) supplemented with 10% fetal bovine serum (FBS, PAN-Biotech GmbH) and Pen/Strep (PAN-Biotech GmbH). For experiments, Neuro-2a cells were harvested, resuspended at 60.000 cells/mL and seeded at a density of 36.000 cells/well or 6.000 cells/well for the 24 or 96-well plates (Greiner BioOne). Cells were incubated overnight at 37° C. Before the start of treatment, either 210 μL or 35 μL media was added per well resp., followed by the compounds from a 10× concentrated stock solution in DPBS (PAN-Biotech GmbH). In the control wells, or when only one compound was applied in treatment, additional DPBS was added so that the final volume per well was 900 µL or 150 μL for the 24 or 96-well plates (wp), respectively. Plates were incubated for 72 hr at 37° C. before the cells of the 24 wp were harvested for gene expression analysis or exon skip/aberrant transcript analysis and the cell viability was assessed on the 96 wp.
as §1, with “LightCycler” for “Light Cycler”, “A6.” for “A3.”

Sod1 RNA transcripts = assay: Sod1 aberrant transcript / exon skip in Neuro-2a cells (PCR gel analysis)
Procedure: Neuro-2a (murine neuroblastoma cells) were cultured in DMEM (PAN-Biotech GmbH) supplemented with 10% fetal bovine serum (FBS, PAN-Biotech GmbH) and Pen/Strep (PAN-Biotech GmbH). For experiments Neuro-2a cells were harvested, resuspended at 70.000 cells/mL and seeded at a density of 42.000 cells/well or 7.000 cells/well for the 24 or 96-well plates (Greiner BioOne). Cells were incubated overnight at 37° C. Before the start of treatment 120 μL or 20 μL media was added per well resp., followed by both saponin and/or PMO from a 10× concentrated stock solution in DPBS (PAN-Biotech GmbH). […] Plates were incubated for 72 hr at 37° C. before the cells of the 24 wp were harvested for gene expression analysis and the cell viability was assessed on the 96 wp.
Total RNA from cells was isolated using TRIzol™ Reagent (Thermo Scientific) according to the manufacturer's instruction. […] The gene expression was determined on 50 ng cDNA using the SapphireAmp Fast PCR Master Mix (Takara) with specific DNA primers, listed in Table A4. The PCR product was separated on a 2% agarose gel and fragments were analysed on the ChemiDoc XRS+ (BioRad) using Image Lab software (BioRad). For quantification of the % exon skip, the signal intensity of the aberrant transcript(s) (Mm Sod1 448 bp and 378 bp was divided over the total signal intensity of the skipped fragment(s)+full length fragment (Mm Sod1 545 bp)×100. […]

Sod1 transcript = assay: Remaining full length Sod1 transcript in Neuro-2a cells (qRT-PCR); settings: PMO without saponin component
Procedure: as §2, with “In the control wells, or when only one compound was applied in treatment, additional DPBS was added so that the final volume per well was 900 µL or 150 μL for the 24 or 96-well plates (wp), respectively.” left out
Total RNA from cells was isolated using TRIzol™ Reagent (Thermo Scientific) according to the manufacturer's instruction. […] Gene expression levels of the gene of interest (GOI) and levels of specific housekeeping genes were determined using quantitative real-time PCR assays (qRT-PCR) using iTaq™ Universal SYBR® Green Supermix (BioRad) and the LightCycler 480 II (Roche Diagnostics) with specific DNA primers, listed in Table A6. […] Results are expressed as % relative GOI expression levels after normalization to DPBS treated control cells.

CC(=O)OC1C(C)OC(OC2C(C)OC(OC(=O)[C@]34CCC(C)(C)CC3C3=CCC5[C@@]6(C)CC[C@H](OC7OC(C(=O)O)C(O)C(OC8OCC(O)C(O)C8O)C7OC7OC(CO)C(O)C(O)C7O)[C@@](C)(/C=N/NC(=O)CCCCCN7C(=O)CC(SCCO)C7=O)C6CC[C@@]5(C)[C@]3(C)C[C@H]4O)C(OC3OC(C)C(OC4OCC(O)C(OC5OC(CO)C(O)C(O)C5O)C4O)C(O)C3O)C2O)C(O)C1OC1OCC(O)C(O)C1O (stereo partly drawn) [SO1861-AH-Block]
enhancing effect on Malat1 mRNA reduction in co-administration (Malat1 mRNA): efficacious
concentration above which complete loss of Malat1 mRNA expression is achieved (Malat1 mRNA; titrated with fixed 200 nM Malat1 ASO): above 3200 nM

C[C@@H]1CC[C@@]2(OC1)O[C@H]1[C@@H](O)[C@H]3[C@@H]4CC[C@H]5C[C@@H](O[C@@H]6O[C@H](CO)[C@H](O[C@@H]7O[C@H](CO)[C@@H](O)[C@H](O[C@@H]8OC[C@@H](O)[C@H](O)[C@H]8O)[C@H]7O[C@@H]7O[C@H](CO)[C@H](O)[C@H](O[C@@H]8O[C@H](CO)[C@@H](O)[C@H](O)[C@H]8O)[C@H]7O)[C@H](O)[C@H]6O)[C@H](O)C[C@]5(C)[C@H]4CC[C@]3(C)[C@H]1[C@@H]2C [digitonin]
reduction in Malat1 mRNA (Malat1 mRNA; 10.000 nM of named molecule with 200 nM Malat1 ASO, 4320 min): approximately 70%
Malat1 RNA still measurable (Malat1 mRNA; 4320 min): 10-15%
co-administration enhancement effect on Malat1 ASO efficacy (Malat1 mRNA): not observed

C[C@H]1O[C@@H](O[C@H]2[C@@H](O)C[C@H](O[C@H]3[C@@H](O)C[C@H](O[C@H]4CC[C@@]5(C)[C@H](CC[C@@H]6[C@@H]5C[C@@H](O)[C@]5(C)[C@@H](C7=CC(=O)OC7)CC[C@]65O)C4)O[C@@H]3C)O[C@@H]2C)C[C@H](O)[C@@H]1O [digoxin]
Malat1 RNA still measurable (Malat1 mRNA; 4320 min): 10-15%
co-administration enhancement effect on Malat1 ASO efficacy (Malat1 mRNA): not observed
enhancing effect on Malat1 mRNA reduction in co-administration (Malat1 mRNA): no enhancing effect

CC1(C)[C@@H](O[C@H]2O[C@H](C(=O)O)[C@@H](O)[C@H](O)[C@H]2O[C@@H]2O[C@H](C(=O)O)[C@@H](O)[C@H](O)[C@H]2O)CC[C@]2(C)[C@H]3C(=O)C=C4[C@@H]5C[C@@](C)(C(=O)O)CC[C@]5(C)CC[C@@]4(C)[C@]3(C)CC[C@@H]12 [glycyrrhizin]
enhancing effect on Malat1 mRNA reduction in co-administration (Malat1 mRNA): no enhancing effect

C[C@H]1CC[C@]2(NC1)O[C@H]1C[C@H]3[C@@H]4CC[C@H]5C[C@@H](O[C@@H]6O[C@H](CO)[C@H](O[C@@H]7O[C@H](CO)[C@@H](O)[C@H](O[C@@H]8OC[C@@H](O)[C@H](O)[C@H]8O)[C@H]7O[C@@H]7O[C@H](CO)[C@@H](O)[C@H](O)[C@H]7O)[C@H](O)[C@H]6O)CC[C@]5(C)[C@H]4CC[C@]3(C)[C@H]1[C@@H]2C [tomatine]
Malat1 RNA still measurable (Malat1 mRNA; 4320 min): 10-15%
co-administration enhancement effect on Malat1 ASO efficacy (Malat1 mRNA): not observed
enhancing effect on Malat1 mRNA reduction in co-administration (Malat1 mRNA): no enhancing effect

SOD1 PMO: PMO targeting murine Sod1, SEQ ID: 20, GCCAGCCTAGGACCTACCTTGTGTA (all phosphorodiamidate morpholino (PMO))
induction of aberrant Sod1 transcripts (Sod1 RNA transcripts; PMO alone, up to 50 μM PMO (FIG. 4)): did not induce any aberrant Sod1 transcripts
activity (aberrant transcript induction, nonsense mediated mRNA decay) (Sod1 RNA transcripts; without saponin component (FIG. 18C, 18D)): did not show any activity at any of the concentrations tested
reduction of full length Sod1 transcript (Sod1 transcript): not able to reduce transcript
